Earlier results as cited in patent publication US20240024227A1, “CANNABIS PLANT DERIVED EXTRACELLULAR VESICLES AND THERAPEUTIC METHODS USING THE SAME” (UNIVERSITY OF FLORIDA RESEARCH FOUNDATION, INCORPORATED, priority 2020, published 2024).
Where two headings read alike, the source gives them in different places.

Settings: IP approximately 300 μg

SMILES	CBDa brain Cmax (ethanol Tween-80 solution)	CBDa brain Cmax (vegetable oil)	time of CBDa brain Cmax (vegetable oil or Tween-80)	THCa levels in the brain
C=C(C)[C@@H]1CCC(C)=C[C@H]1c1c(O)cc(CCCCC)c(C(=O)O)c1O [CBDa, Cannabidiolic acid]	13.2 ng/mg	2.0 ng/mg	30 min	–
CCCCCc1cc2c(c(O)c1C(=O)O)[C@@H]1C=C(C)CC[C@H]1C(C)(C)O2 [THCa, tetrahydrocannabinolic acid]	–	–	–	below detection
